Values of other authors in US9163134B2, “Highly functional additive for polymerization and method for preparing vinyl chloride seeds using the same” (LG CHEM, LTD., priority 2011, dated 2015).
Converted amounts (≈) assume the structure as drawn.

| Solubility in water (mg/L) | Solubility in water | Structure (SMILES) |
| --- | --- | --- |
| ∞ | – | CCO [C2H5—OH] |
| – | 6260 µg/mL (≈ 61.3 mM) | CCCCCCO [C6H13—OH] |
| – | 540 µg/mL (≈ 4.15 mM) | CCCCCCCCO [C8H17—OH] |
| – | 37 µg/mL (≈ 0.234 mM) | CCCCCCCCCCO [C10H21—OH] |
